Values quoted from earlier work as cited in US20060264455A1 (priority 2005, published 2006).

system: 6 Hz limbic seizures (corneal stimulation); conditions: established antiepileptic drugs; cited from earlier work

| Compound | Efficacy in the 6 Hz psychomotor seizure model |
| --- | --- |
| NC(=O)N1c2ccccc2C=Cc2ccccc21 [carbamazepine] | limited efficacy |
| Nc1nnc(-c2cccc(Cl)c2Cl)c(N)n1 [lamotrigine] | limited efficacy |
| O=C1NC(=O)C(c2ccccc2)(c2ccccc2)N1 [phenytoin] | limited efficacy |
| CC1(C)O[C@@H]2[C@@H](CO[C@@]3(COS(N)(=O)=O)OC(C)(C)O[C@@H]23)O1 [topiramate] | limited efficacy |
